Our source for the GI50 and TGI values is PubChem BioAssay (NCI).

Some test systems named below: COLO 205 colon; HCT-15 colon; HL-60(TB) leukemia; HS 578T breast; LOX IMVI melanoma; MALME-3M melanoma; NCI-H460 lung; PC-3 prostate; SNB-19 CNS; U251 CNS.
Holding throughout (assay): growth of human tumour cells (NCI), 48 h

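These data come from cells grown in 96-well plates and exposed to compound for 48 hours at five concentrations. GI50 = concentration required for 50% inhibition of growth. TGI marks complete inhibition of growth.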 Some results are limits rather than exact numbers.

Take `O=C(CSc1nc2ccccc2nc1-c1ccccc1)Nc1ccc(F)cc1`: the GI50 with COLO 205 colon was 83.3 µM; with HCT-15 colon, 48.7 µM; in the test with HL-60(TB) leukemia, 66.9 µM; in the test with HS 578T breast, 28.1 µM; in the test with LOX IMVI melanoma, 68 µM; in the test with MALME-3M melanoma it was 17.1 µM. Also, the GI50 was 60.7 µM with NCI-H460 lung, 38.9 µM in the test with PC-3 prostate, 34.5 µM in the test on SNB-19 CNS and 38.8 µM in the test on U251 CNS. The TGI with COLO 205 colon was greater than 100 µM; in the test with HCT-15 colon it was greater than 100 µM; in the test with HL-60(TB) leukemia it was greater than 100 µM; in the test with HS 578T breast, 63.8 µM; with LOX IMVI melanoma it was greater than 100 µM; in the test with MALME-3M melanoma, 54 µM. Also, the TGI in the test on NCI-H460 lung, in the test on PC-3 prostate, with SNB-19 CNS and in the test on U251 CNS was greater than 100 µM throughout.
`Cc1ncc(C(=O)Nc2ccc(CN3CCN(C)CC3)c(C(F)(F)F)c2)cc1C#Cc1cnc(N)c2ccncc12`: the GI50 in the test on COLO 205 colon was 0.687 µM; with HCT-15 colon, 1.26 µM; with HL-60(TB) leukemia it was 0.79 µM; in the test with HS 578T breast it was 0.984 µM; with LOX IMVI melanoma it was 0.337 µM; in the test on MALME-3M melanoma it was 0.361 µM. The GI50 with NCI-H460 lung was 1.38 µM; in the test on PC-3 prostate, 2.41 µM; in the test with SNB-19 CNS it was 1.8 µM; in the test on U251 CNS, 1.55 µM. In addition, the TGI came to 2.04 µM in the test with COLO 205 colon; 4.42 µM with HCT-15 colon; 4.06 µM in the test with HL-60(TB) leukemia; 4.65 µM in the test with HS 578T breast; 1.4 µM in the test with LOX IMVI melanoma; 1.59 µM in the test on MALME-3M melanoma. Moreover, the TGI with NCI-H460 lung came to 3.02 µM; in the test with PC-3 prostate it was 6.76 µM; in the test on SNB-19 CNS it was 4.62 µM; in the test with U251 CNS, 3.35 µM.
For the molecule `C#C[C@]1(O)CCC2C3CCc4cc(O)ccc4C3CC[C@@]21C` (stereo not given in full), the GI50 with COLO 205 colon was 3.86 µM; in the test with HCT-15 colon, 4.9 µM; in the test with HL-60(TB) leukemia, 3.45 µM; with HS 578T breast it was 3.08 µM; with LOX IMVI melanoma, 5.27 µM; with MALME-3M melanoma, 7.08 µM. Also, the GI50 in the test on NCI-H460 lung is 4.02 µM; in the test with PC-3 prostate, 5.48 µM; with SNB-19 CNS, 7.59 µM; with U251 CNS, 4.09 µM. For the same molecule, the TGI in the test with COLO 205 colon came out at 14 µM; with HCT-15 colon it was 73 µM; in the test with HL-60(TB) leukemia, 24.2 µM; in the test with HS 578T breast, 17.7 µM; in the test on LOX IMVI melanoma, 18.8 µM; in the test with MALME-3M melanoma, 22.4 µM. For the same molecule, the TGI in the test on NCI-H460 lung was 17.8 µM; with PC-3 prostate, 42.4 µM; in the test on SNB-19 CNS, greater than 100 µM; in the test on U251 CNS, 17.5 µM.
Consider `CCOC(=O)C(Cc1ccc(CCCC(=O)NCCC(=O)Nc2ccc3nc(C)sc3c2)cc1)C(=O)OCC`, for which the GI50 with COLO 205 colon was 32.3 µM; with HCT-15 colon it was 31.8 µM; in the test with HL-60(TB) leukemia it was 23.7 µM; with HS 578T breast, 68.3 µM; in the test with LOX IMVI melanoma it was 33.2 µM; with MALME-3M melanoma it was 28.3 µM. In addition, the GI50 is greater than 62.4 µM with NCI-H460 lung, 24.3 µM in the test on PC-3 prostate, greater than 100 µM in the test with SNB-19 CNS and greater than 81.4 µM in the test on U251 CNS. The TGI in the test with COLO 205 colon was greater than 96.4 µM; in the test with HCT-15 colon, greater than 100 µM; in the test with HL-60(TB) leukemia, 64.7 µM; with HS 578T breast, greater than 100 µM; in the test on LOX IMVI melanoma it was greater than 100 µM; in the test with MALME-3M melanoma, greater than 84.4 µM. Also, the TGI in the test on NCI-H460 lung is greater than 100 µM; in the test with PC-3 prostate it was greater than 70.7 µM; in the test on SNB-19 CNS it was greater than 100 µM; with U251 CNS it was greater than 100 µM.
On to `CNCC#Cc1c(F)ccc2c1/C(=C/c1[nH]ccc1OC)C(=O)N2`, for which the GI50 with COLO 205 colon is 0.113 µM; in the test on HCT-15 colon it was 0.0866 µM; in the test with HL-60(TB) leukemia, 0.0722 µM; in the test with HS 578T breast, 0.195 µM; in the test with LOX IMVI melanoma it was 0.142 µM; with MALME-3M melanoma, 0.608 µM. Further, the GI50 with NCI-H460 lung is 0.124 µM; in the test on PC-3 prostate it was 0.32 µM; in the test with SNB-19 CNS, 0.621 µM; with U251 CNS, 0.121 µM. The TGI in the test on COLO 205 colon was found to be 0.48 µM; in the test on HCT-15 colon, 2.78 µM; with HL-60(TB) leukemia, 0.26 µM; in the test on HS 578T breast, 3.68 µM; in the test with LOX IMVI melanoma, 2.18 µM; in the test on MALME-3M melanoma, 2.55 µM. Further, the TGI turned out to be 2.44 µM in the test with NCI-H460 lung, 2.88 µM in the test on PC-3 prostate, 2.89 µM in the test on SNB-19 CNS and 2.75 µM in the test on U251 CNS.
On to `CN(C)CC[PH+](c1ccccc1)c1ccccc1.CN(C)CC[PH+](c1ccccc1)c1ccccc1.[Cl-].[Pd+2]`, for which the GI50 is 80.2 µM in the test with COLO 205 colon; greater than 100 µM in the test on HCT-15 colon; greater than 100 µM in the test with HL-60(TB) leukemia; greater than 100 µM with HS 578T breast; greater than 100 µM with LOX IMVI melanoma; greater than 100 µM in the test with MALME-3M melanoma. Moreover, the GI50 with NCI-H460 lung, in the test with PC-3 prostate, in the test with SNB-19 CNS and in the test on U251 CNS was greater than 100 µM each time. In addition, the TGI in the test on COLO 205 colon, in the test on HCT-15 colon, in the test with HL-60(TB) leukemia, in the test with HS 578T breast, with LOX IMVI melanoma and in the test on MALME-3M melanoma was greater than 100 µM each time. Further, the TGI in the test with NCI-H460 lung, in the test with PC-3 prostate, in the test with SNB-19 CNS and with U251 CNS was greater than 100 µM throughout.
As for `O=C(CC1(O)C(=O)N(Cc2ccccc2)c2ccc(F)cc21)c1ccc(C(=O)NCC2CCC3(CC2)OOC2(CCCCC2)OO3)cc1` (stereo not given), the GI50 with COLO 205 colon was 0.728 µM; in the test with HCT-15 colon, 0.867 µM; with HL-60(TB) leukemia, 0.349 µM; in the test with HS 578T breast it was 1.92 µM; with LOX IMVI melanoma, 0.0771 µM; in the test with MALME-3M melanoma, 0.226 µM. In addition, the GI50 was 0.21 µM in the test on NCI-H460 lung, 0.99 µM in the test on PC-3 prostate, 3.44 µM in the test with SNB-19 CNS and 0.251 µM in the test with U251 CNS. Besides, the TGI worked out at 2.02 µM with COLO 205 colon; 3.2 µM in the test with HCT-15 colon; 0.999 µM in the test with HL-60(TB) leukemia; 6.08 µM with HS 578T breast; 0.222 µM in the test with LOX IMVI melanoma; 0.54 µM with MALME-3M melanoma. Also, the TGI with NCI-H460 lung is 0.487 µM; with PC-3 prostate, 3.21 µM; with SNB-19 CNS, 43.5 µM; in the test on U251 CNS it was 0.674 µM.
